From ChEMBL document CHEMBL5614387, “Discovery of 2,4,6-trisubstituted pyrimidine derivatives as novel potent HIV-1 NNRTIs by exploiting the tolerant region II of the NNIBP” (Eur J Med Chem, 2024)

Tests used:
[1] = test system: Human immunodeficiency virus 1; experiment: Antiviral activity against HIV-1 harboring RT Y188L mutant infected in human MT4 cells assessed as protection against virus-induced cytopathic effect by MTT assay; format: functional, organism-based; conditions: Human immunodeficiency virus 1, MT4
[2] = test system: Human immunodeficiency virus 1; experiment: Antiviral activity against HIV-1 harboring RT E138K mutant infected in human MT4 cells assessed as protection against virus-induced cytopathic effect by MTT assay; format: functional, organism-based; conditions: Human immunodeficiency virus 1, MT4
[3] = test system: Human immunodeficiency virus 1; experiment: Antiviral activity against wild-type HIV-1 IIIB infected in human MT4 cells assessed as protection against virus-induced cytopathic effect by MTT assay; format: functional, organism-based; conditions: Human immunodeficiency virus 1, IIIB
[4] = Selectivity index, ratio of CC50 for human MT4 cells to EC50 for wild-type HIV-1 IIIB infected in human MT4 cells; format: toxicity, cell-based; conditions: read-out: Ratio CC50/EC50
[5] = target: Human immunodeficiency virus type 1 reverse transcriptase (Human immunodeficiency virus 1, UniProt Q72547); experiment: Inhibition of wild-type HIV-1 reverse transcriptase incubated for 1 hr in presence of biotin-dUTP by ELISA
[6] = Cytotoxicity against human MT4 cells assessed as reduction in cell viability by MTT assay; format: toxicity, cell-based
[7] = test system: Human immunodeficiency virus 1; experiment: Antiviral activity against HIV-1 harboring RT L100I mutant infected in human MT4 cells assessed as protection against virus-induced cytopathic effect by MTT assay; format: functional, organism-based; conditions: Human immunodeficiency virus 1, MT4
[8] = test system: Human immunodeficiency virus 1; experiment: Antiviral activity against HIV-1 harboring RT K103N mutant infected in human MT4 cells assessed as protection against virus-induced cytopathic effect by MTT assay; format: functional, organism-based; conditions: Human immunodeficiency virus 1, MT4
[9] = test system: Human immunodeficiency virus 1; experiment: Antiviral activity against HIV-1 harboring RT RES056 mutant infected in human MT4 cells assessed as protection against virus-induced cytopathic effect by MTT assay; format: functional, organism-based; conditions: Human immunodeficiency virus 1, MT4
[10] = test system: Human immunodeficiency virus 1; experiment: Antiviral activity against HIV-1 harboring RT F227L/V106A mutant infected in human MT4 cells assessed as protection against virus-induced cytopathic effect by MTT assay; format: functional, organism-based; conditions: Human immunodeficiency virus 1, MT4
[11] = test system: Human immunodeficiency virus 1; experiment: Antiviral activity against HIV-1 harboring RT Y181C mutant infected in human MT4 cells assessed as protection against virus-induced cytopathic effect by MTT assay; format: functional, organism-based; conditions: Human immunodeficiency virus 1, MT4

SMILES: Cc1cc(C#N)cc(C)c1Oc1cc(-c2ccncc2)nc(NC2CCN(Cc3ccc(S(N)(=O)=O)cc3)CC2)n1
- EC50 [1]: 0.0586 µM
- EC50 [2]: 0.0148 µM
- EC50 [3]: 0.00362 µM
- selectivity ratio [4]: 5080
- IC50 [5]: 0.507 µM
- CC50 [6]: 18.4 µM
- EC50 [7]: 0.0997 µM
- EC50 [8]: 0.0106 µM
- EC50 [9]: 1.21 µM
- EC50 [10]: 0.0726 µM
- EC50 [11]: 0.0434 µM

SMILES: Cc1cc(C#N)cc(C)c1Oc1cc(-c2cncnc2)nc(NC2CCN(Cc3ccc(S(N)(=O)=O)cc3)CC2)n1
- EC50 [1]: 0.055 µM
- EC50 [2]: 0.0345 µM
- EC50 [3]: 0.00429 µM
- selectivity ratio [4]: 25400
- IC50 [5]: 0.733 µM
- CC50 [6]: 109 µM
- EC50 [7]: 0.0398 µM
- EC50 [8]: 0.013 µM
- EC50 [9]: 0.916 µM
- EC50 [10]: 0.0634 µM
- EC50 [11]: 0.026 µM

SMILES: Cc1cc(C#N)cc(C)c1Oc1cc(-c2ccccc2)nc(NC2CCN(Cc3ccc(S(N)(=O)=O)cc3)CC2)n1
- EC50 [3]: 0.00601 µM
- selectivity ratio [4]: 3000
- CC50 [6]: 18 µM

SMILES: Cc1cc(C#N)cc(C)c1Oc1cc(-c2ccsc2)nc(NC2CCN(Cc3ccc(S(C)(=O)=O)cc3)CC2)n1
- EC50 [3]: 0.167 µM
- selectivity ratio [4]: > 1310
- CC50 [6]: > 219 µM

SMILES: Cc1cc(C#N)cc(C)c1Oc1cc(-c2cncnc2)nc(NC2CCN(Cc3ccc(S(C)(=O)=O)cc3)CC2)n1
- EC50 [3]: 0.00672 µM
- selectivity ratio [4]: 16100
- CC50 [6]: 108 µM

SMILES: Cc1cc(C#N)cc(C)c1Oc1cc(-c2ccco2)nc(NC2CCN(Cc3ccc(S(C)(=O)=O)cc3)CC2)n1
- EC50 [3]: 0.00568 µM
- selectivity ratio [4]: 3640
- CC50 [6]: 20.7 µM

SMILES: Cc1cc(C#N)cc(C)c1Oc1cc(-c2ccccc2)nc(NC2CCN(Cc3ccc(C(N)=O)cc3)CC2)n1
- EC50 [3]: 0.00623 µM
- selectivity ratio [4]: 3710
- CC50 [6]: 23.1 µM

SMILES: Cc1cc(C#N)cc(C)c1Oc1cc(-c2ccccc2)nc(NC2CCN(Cc3ccc(S(C)(=O)=O)cc3)CC2)n1
- EC50 [1]: 0.038 µM
- EC50 [2]: 0.0325 µM
- EC50 [3]: 0.00468 µM
- selectivity ratio [4]: 2670
- IC50 [5]: 0.231 µM
- CC50 [6]: 12.5 µM
- EC50 [7]: 0.0114 µM
- EC50 [8]: 0.00682 µM
- EC50 [9]: 0.229 µM
- EC50 [10]: 0.026 µM
- EC50 [11]: 0.0277 µM

SMILES: Cc1cc(C#N)cc(C)c1Oc1cc(-c2ccoc2)nc(NC2CCN(Cc3ccc(C(N)=O)cc3)CC2)n1
- EC50 [3]: 0.00549 µM
- selectivity ratio [4]: 3610
- CC50 [6]: 19.8 µM

SMILES: Cc1cc(C#N)cc(C)c1Oc1cc(-c2ccncc2)nc(NC2CCN(Cc3ccc(S(C)(=O)=O)cc3)CC2)n1
- EC50 [1]: 0.0615 µM
- EC50 [2]: 0.0178 µM
- EC50 [3]: 0.00407 µM
- selectivity ratio [4]: 6460
- IC50 [5]: 0.52 µM
- CC50 [6]: 26.3 µM
- EC50 [7]: 0.0583 µM
- EC50 [8]: 0.0101 µM
- EC50 [9]: 2.35 µM
- EC50 [10]: 0.107 µM
- EC50 [11]: 0.0509 µM

SMILES: Cc1cc(C#N)cc(C)c1Oc1cc(-c2cccnc2)nc(NC2CCN(Cc3ccc(S(N)(=O)=O)cc3)CC2)n1
- EC50 [1]: 0.0365 µM
- EC50 [2]: 0.0211 µM
- EC50 [3]: 0.00404 µM
- selectivity ratio [4]: 4500
- IC50 [5]: 0.461 µM
- CC50 [6]: 18.2 µM
- EC50 [7]: 0.0312 µM
- EC50 [8]: 0.0131 µM
- EC50 [9]: 0.494 µM
- EC50 [10]: 0.105 µM
- EC50 [11]: 0.026 µM

SMILES: Cc1cc(C#N)cc(C)c1Oc1cc(-c2cccnc2)nc(NC2CCN(Cc3ccc(C(N)=O)cc3)CC2)n1
- EC50 [1]: 0.0376 µM
- EC50 [2]: 0.0096 µM
- EC50 [3]: 0.00361 µM
- selectivity ratio [4]: 4760
- IC50 [5]: 0.428 µM
- CC50 [6]: 17.2 µM
- EC50 [7]: 0.0356 µM
- EC50 [8]: 0.0112 µM
- EC50 [9]: 1.42 µM
- EC50 [10]: 0.106 µM
- EC50 [11]: 0.0153 µM

SMILES: Cc1cc(C#N)cc(C)c1Oc1cc(-c2ccco2)nc(NC2CCN(Cc3ccc(S(N)(=O)=O)cc3)CC2)n1
- EC50 [3]: 0.00785 µM
- selectivity ratio [4]: 2900
- CC50 [6]: 22.8 µM

SMILES: Cc1cc(C#N)cc(C)c1Oc1cc(-c2cccnc2)nc(NC2CCN(Cc3ccc(S(C)(=O)=O)cc3)CC2)n1
- EC50 [1]: 0.0366 µM
- EC50 [2]: 0.0261 µM
- EC50 [3]: 0.00412 µM
- selectivity ratio [4]: 5000
- IC50 [5]: 0.607 µM
- CC50 [6]: 20.6 µM
- EC50 [7]: 0.0585 µM
- EC50 [8]: 0.00901 µM
- EC50 [9]: 0.799 µM
- EC50 [10]: 0.147 µM
- EC50 [11]: 0.0219 µM

SMILES: Cc1cc(C#N)cc(C)c1Oc1cc(-c2cccs2)nc(NC2CCN(Cc3ccc(C(N)=O)cc3)CC2)n1
- EC50 [1]: 0.0444 µM
- EC50 [2]: 0.0361 µM
- EC50 [3]: 0.00448 µM
- selectivity ratio [4]: 4310
- IC50 [5]: 0.299 µM
- CC50 [6]: 19.3 µM
- EC50 [7]: 0.0202 µM
- EC50 [8]: 0.00668 µM
- EC50 [9]: 0.399 µM
- EC50 [10]: 0.0634 µM
- EC50 [11]: 0.0305 µM

SMILES: Cc1cc(C#N)cc(C)c1Oc1cc(-c2ccco2)nc(NC2CCN(Cc3ccc(C(N)=O)cc3)CC2)n1
- EC50 [3]: 0.0155 µM
- selectivity ratio [4]: 1550
- CC50 [6]: 24 µM

SMILES: Cc1cc(C#N)cc(C)c1Oc1cc(-c2ccoc2)nc(NC2CCN(Cc3ccc(S(N)(=O)=O)cc3)CC2)n1
- EC50 [3]: 0.00936 µM
- selectivity ratio [4]: 3150
- CC50 [6]: 29.5 µM

SMILES: Cc1cc(C#N)cc(C)c1Oc1cc(-c2ccsc2)nc(NC2CCN(Cc3ccc(C(N)=O)cc3)CC2)n1
- EC50 [3]: 0.00506 µM
- selectivity ratio [4]: 4680
- CC50 [6]: 23.7 µM

SMILES: Cc1cc(C#N)cc(C)c1Oc1cc(-c2cccs2)nc(NC2CCN(Cc3ccc(S(N)(=O)=O)cc3)CC2)n1
- EC50 [3]: 0.0106 µM
- selectivity ratio [4]: 2320
- CC50 [6]: 24.6 µM

SMILES: Cc1cc(C#N)cc(C)c1Oc1cc(-c2ccoc2)nc(NC2CCN(Cc3ccc(S(C)(=O)=O)cc3)CC2)n1
- EC50 [3]: 0.00556 µM
- selectivity ratio [4]: 4060
- CC50 [6]: 22.6 µM

SMILES: Cc1cc(C#N)cc(C)c1Oc1cc(-c2cncnc2)nc(NC2CCN(Cc3ccc(C(N)=O)cc3)CC2)n1
- EC50 [1]: 0.0353 µM
- EC50 [2]: 0.029 µM
- EC50 [3]: 0.00411 µM
- selectivity ratio [4]: 10100
- IC50 [5]: 0.601 µM
- CC50 [6]: 41.6 µM
- EC50 [7]: 0.0768 µM
- EC50 [8]: 0.0102 µM
- EC50 [9]: 1.06 µM
- EC50 [10]: 0.279 µM
- EC50 [11]: 0.0246 µM

SMILES: Cc1cc(C#N)cc(C)c1Oc1cc(-c2ccncc2)nc(NC2CCN(Cc3ccc(C(N)=O)cc3)CC2)n1
- EC50 [3]: 0.00739 µM
- selectivity ratio [4]: 2870
- CC50 [6]: 21.2 µM

SMILES: Cc1cc(C#N)cc(C)c1Oc1cc(-c2cccs2)nc(NC2CCN(Cc3ccc(S(C)(=O)=O)cc3)CC2)n1
- EC50 [3]: 0.00553 µM
- selectivity ratio [4]: 3000
- CC50 [6]: 16.6 µM

SMILES: Cc1cc(C#N)cc(C)c1Oc1cc(-c2ccsc2)nc(NC2CCN(Cc3ccc(S(N)(=O)=O)cc3)CC2)n1
- EC50 [1]: 0.0464 µM
- EC50 [2]: 0.0424 µM
- EC50 [3]: 0.00445 µM
- selectivity ratio [4]: 3330
- IC50 [5]: 0.236 µM
- CC50 [6]: 14.8 µM
- EC50 [7]: 0.00983 µM
- EC50 [8]: 0.00461 µM
- EC50 [9]: 0.311 µM
- EC50 [10]: 0.0616 µM
- EC50 [11]: 0.0371 µM

SMILES: O=C1Nc2ccc(Cl)cc2[C@@](C#CC2CC2)(C(F)(F)F)O1 [EFAVIRENZ]
- EC50 [1]: 0.396 µM
- EC50 [2]: 0.00882 µM
- EC50 [3]: 0.00367 µM
- CC50 [6]: > 6.34 µM
- EC50 [7]: 0.0289 µM
- EC50 [10]: 0.261 µM

SMILES: Cc1cc(C#N)cc(C)c1Oc1nc(Nc2ccc(C#N)cc2)nc(N)c1Br [ETRAVIRINE]
- EC50 [1]: 0.0305 µM
- EC50 [2]: 0.0149 µM
- CC50 [6]: > 4.59 µM
- EC50 [9]: 0.0323 µM

SMILES: Cc1ccnc2c1NC(=O)c1cccnc1N2C1CC1 [NEVIRAPINE]
- EC50 [1]: > 15 µM
- EC50 [2]: 0.363 µM
- selectivity ratio [4]: > 73
- CC50 [6]: > 15 µM
- EC50 [7]: 3.13 µM
- EC50 [8]: 8.25 µM
- EC50 [9]: > 15 µM
- EC50 [10]: > 15 µM
- EC50 [11]: 9.21 µM
